Test results: US8524455B2, “Methods and compositions related to TR4 ligand” (University of Rochester, priority 2009, dated 2013)

What was measured:
PPARγ/RXR = target: T1, PPARγ/RXR (Homo sapiens, UniProt P37231); experiment: CD36-luc luciferase reporter assay, PPARγ/RXR co-transfected into CV-1 cells; type: cell-based; conditions: 24 h
T1 construct: expressed in transfected cells; host or cells: CV-1
T1 sequence (P37231 29-505 limits assumed): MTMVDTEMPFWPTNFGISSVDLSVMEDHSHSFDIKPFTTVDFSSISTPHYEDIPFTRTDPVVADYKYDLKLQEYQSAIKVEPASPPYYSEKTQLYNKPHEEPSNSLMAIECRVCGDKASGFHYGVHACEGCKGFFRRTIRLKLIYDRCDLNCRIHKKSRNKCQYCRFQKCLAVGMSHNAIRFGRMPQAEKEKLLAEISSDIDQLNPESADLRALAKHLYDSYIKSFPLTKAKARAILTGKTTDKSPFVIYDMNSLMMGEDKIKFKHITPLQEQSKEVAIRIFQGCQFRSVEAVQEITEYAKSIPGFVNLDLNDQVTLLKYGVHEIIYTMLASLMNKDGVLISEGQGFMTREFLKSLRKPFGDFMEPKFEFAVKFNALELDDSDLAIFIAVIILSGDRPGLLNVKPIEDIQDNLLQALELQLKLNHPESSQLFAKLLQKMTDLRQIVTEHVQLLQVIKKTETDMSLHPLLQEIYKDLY
T1 sequence (P19793 1-462 partner): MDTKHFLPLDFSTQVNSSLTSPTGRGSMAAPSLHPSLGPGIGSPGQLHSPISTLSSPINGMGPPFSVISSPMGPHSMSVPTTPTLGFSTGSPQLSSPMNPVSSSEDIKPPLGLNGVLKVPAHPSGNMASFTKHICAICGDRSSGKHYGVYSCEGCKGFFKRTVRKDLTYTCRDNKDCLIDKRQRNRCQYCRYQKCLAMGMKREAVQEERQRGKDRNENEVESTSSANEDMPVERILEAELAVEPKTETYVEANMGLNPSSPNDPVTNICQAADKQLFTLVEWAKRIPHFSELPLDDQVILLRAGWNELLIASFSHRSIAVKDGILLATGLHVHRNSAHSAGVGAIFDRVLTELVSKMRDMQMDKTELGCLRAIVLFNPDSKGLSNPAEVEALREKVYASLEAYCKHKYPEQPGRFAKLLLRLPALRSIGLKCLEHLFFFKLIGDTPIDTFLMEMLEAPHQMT

TR4 [1] = target: T2, TR4 (Homo sapiens, UniProt P49116); experiment: CD36-luc luciferase reporter assay, TR4 co-transfected into CV-1 cells; type: cell-based; design: pCMX-TR4 plasmids consist of the full length human TR4 gene subcloned into pCMX vector; expressed in transfected cells; host or cells: CV-1; conditions: 24 h
T2 sequence (P49116 1-615 isoform P49116-2): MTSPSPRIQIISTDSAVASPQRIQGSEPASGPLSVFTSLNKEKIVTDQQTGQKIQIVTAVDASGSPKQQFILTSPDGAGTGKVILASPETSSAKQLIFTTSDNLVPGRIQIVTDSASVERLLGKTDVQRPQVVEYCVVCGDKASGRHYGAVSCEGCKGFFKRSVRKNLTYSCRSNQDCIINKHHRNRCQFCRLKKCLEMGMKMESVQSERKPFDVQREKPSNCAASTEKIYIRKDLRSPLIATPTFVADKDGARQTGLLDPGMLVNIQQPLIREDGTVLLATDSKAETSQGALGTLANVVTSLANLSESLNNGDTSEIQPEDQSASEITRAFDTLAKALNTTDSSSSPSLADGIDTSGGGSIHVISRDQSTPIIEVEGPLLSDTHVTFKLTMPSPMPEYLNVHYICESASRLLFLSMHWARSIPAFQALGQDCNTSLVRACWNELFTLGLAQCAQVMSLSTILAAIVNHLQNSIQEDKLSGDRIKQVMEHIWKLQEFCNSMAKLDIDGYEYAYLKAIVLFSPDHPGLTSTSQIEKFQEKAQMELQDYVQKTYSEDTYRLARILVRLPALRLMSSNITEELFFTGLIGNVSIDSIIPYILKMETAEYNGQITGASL
Description: After 24 h, cells were harvested for Luciferase activity. The relative luciferase activity was calculated while setting pCMX-TR4 in vehicle control as 1. (FIG. 6B) Protease protective peptide mapping were analyzed in liganded-PPARγ and TR4. […] The reaction was stopped by adding 2×SDS-sample buffer. The protease digestion pattern was resolved by gel electrophoresis in 12.5% (for PPARγ), and 16% (for TR4) SDS-PAGE. […] After 24 h, cells were harvested for Luciferase activity. The relative luciferase activity was calculated while setting pCMX-TR4 in vehicle control as 1.
Mouse macrophage RAW 264.7 cells, obtained from ATCC, were cultured in DMEM medium supplemented with 8% fetal bovine serum and 100 µg/ml penicillin-streptomycin and maintained on the petri-dishes. […] After 24 h, cells were harvested for luciferase assays.

TR4 [2] = target: T2, TR4; experiment: Limited proteolysis (protease protective peptide mapping) of [35S]-TR4; type: binding; design: pCMX-TR4 plasmids consist of the full length human TR4 gene subcloned into pCMX vector; expressed in transfected cells; host or cells: H1299; conditions: incubated 15 min, trypsin 0.25 and 2.5 g/ml 10 min; compared to DMSO control
Description: (FIG. 6A) PUFAs metabolites induced PPAR- and TR4-mediated CD36 activity. […] After 24 h, cells were harvested for Luciferase activity. The relative luciferase activity was calculated while setting pCMX-TR4 in vehicle control as 1. (FIG. 6B) Protease protective peptide mapping were analyzed in liganded-PPARγ and TR4. […] The reaction was stopped by adding 2×SDS-sample buffer. The protease digestion pattern was resolved by gel electrophoresis in 12.5% (for PPARγ), and 16% (for TR4) SDS-PAGE. […] After 24 h, cells were harvested for Luciferase activity. The relative luciferase activity was calculated while setting pCMX-TR4 in vehicle control as 1.

[3] = 1, 10, 50, 100 and 250 µM in BSA
[4] = 1 and 20 µM in DMSO, compared with AA and EPA

PPAR/RXR-mediated CD36 expression (CD36-luc luciferase activity) (PPARγ/RXR; [3]) | TR4-mediated CD36 expression (CD36-luc luciferase activity) (TR4 [1]; [3]) | PPAR/RXR-mediated CD36 expression (CD36-luc luciferase activity) (PPARγ/RXR; [4]) | TR4-mediated CD36 expression (CD36-luc luciferase activity) (TR4 [1]; [4]) | SMILES | Protease digestion pattern of ligand-bound TR4 (TR4 [2])
mildly induced | mildly induced | – | – | CCCCC/C=C\C/C=C\C/C=C\C/C=C\CCCC(=O)O [AA, arachidonic acid] | –
– | – | much better induction | much better induction | CCCCC[C@H](O)/C=C/C=C\C/C=C\C/C=C\CCCC(=O)O [15-HETE] | several changed proteolysis resisting fragments
– | – | much better induction | much better induction | CCCCCC(O)/C=C/C=C\CCCCCCCC(=O)O (centres unmarked) [13-HODE] | several changed proteolysis resisting fragments
